# Source: patent US8735632B2, “Compounds” (DSM IP Assets B.V., priority 2009, dated 2014)
# Key:
# Type in all cases: physicochemical
# [1] = Solubility in C12-15 alkyl benzoate: saturation of the solvent, content in the supernatant by HPLC; details: pure cosmetic solvent
# [2] = Solubility of BMDBM/BEMT in 1:1 (w/w) mixture C12-15 alkyl benzoate/PG-UVB, stored 1 month at RT, no re-crystallization
# [3] = Reduction of solvent necessary to dissolve solid UV-filter; details: for reduction of the cosmetic solvent necessary to dissolve BMDBM: with PG-UVB 1:1
# [4] = C12-15 alkyl benzoate/PG-UVB 1:1 versus C12-15 alkyl benzoate
Compound,Solubility in C12-15 alkyl benzoate [1] [wt.-%],Δ solubility related to cosmetic solvent ([2]; C12-15 alkyl benzoate/PG-UVB 1:1),"Increase of solubility BMDBM/BEMT [2, 4]","Δ solubility [2, 4]",reduction of the cosmetic solvent necessary to dissolve BMDBM ([3]; C12-15 alkyl benzoate) [%],reduction of the cosmetic solvent necessary to dissolve BMDBM ([3]; diisopropyl sebacate) [%],amount of 1:1 (w/w) mixture of PG-UVB and C12-15 alkyl benzoate necessary to dissolve 0.5 g BMDBM ([3]; with PG-UVB of example 1) [g],amount of 1:1 (w/w) mixture of PG-UVB and diisopropyl sebacate needed to dissolve 0.5 g BMDBM ([3]; with PG-UVB of example 1) [g]
"CCCCC(CC)COc1ccc(-c2nc(-c3ccc(OC)cc3)nc(-c3ccc(OCC(CC)CCCC)cc3O)n2)c(O)c1 (centres unmarked) [BEMT, bis-ethylhexyloxyphenol methoxyphenyl triazine]",13,+13.5 wt.-%,+54%,+7 wt.-%,,,,
butyl methoxydibenzoylmethane [BMDBM],,,,,75,65,1.5,1.4
